{"source": "patent US20150290439A1", "about": "“METHODS FOR BILATERAL CENTRAL AUTONOMIC NEUROMODULATION” (priority 2014, published 2015)", "origin": "cited, not measured here", "key": {"[1]": {"experiment": "not given", "remark": "listed apart in the source"}, "[2]": {"conditions": "reason for discontinuation"}, "[3]": {"target": "calcitonin gene-related peptide receptor (Homo sapiens, UniProt O60894+Q16602)", "sequence (Q16602 23-461)": "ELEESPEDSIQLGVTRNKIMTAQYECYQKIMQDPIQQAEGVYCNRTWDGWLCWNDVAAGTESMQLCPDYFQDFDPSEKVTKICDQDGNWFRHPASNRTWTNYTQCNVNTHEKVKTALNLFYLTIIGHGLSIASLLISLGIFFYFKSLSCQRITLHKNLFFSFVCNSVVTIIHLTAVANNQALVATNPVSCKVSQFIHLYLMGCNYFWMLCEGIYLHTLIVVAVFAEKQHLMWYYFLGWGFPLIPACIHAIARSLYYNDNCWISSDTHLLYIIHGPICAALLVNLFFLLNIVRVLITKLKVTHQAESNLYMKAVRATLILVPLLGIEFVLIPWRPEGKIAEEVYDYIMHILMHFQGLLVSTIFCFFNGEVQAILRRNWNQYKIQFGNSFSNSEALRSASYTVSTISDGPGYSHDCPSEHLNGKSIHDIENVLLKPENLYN", "sequence (O60894 27-148)": "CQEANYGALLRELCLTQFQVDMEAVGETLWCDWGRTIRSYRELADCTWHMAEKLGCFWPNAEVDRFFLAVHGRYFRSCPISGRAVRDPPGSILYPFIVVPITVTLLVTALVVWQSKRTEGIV"}}}
{"smiles": "Cc1cc(C[C@@H](OC(=O)N2CCC(N3CCc4ccccc4NC3=O)CC2)C(=O)N2CCC(N3CCOCC3)CC2)cc(C)c1O", "note": "[BI44370A]", "values": [{"measurement": "efficacy in Phase 2 clinical study", "result": "efficacy demonstrated"}]}
{"smiles": "N[C@@H]1c2cccnc2[C@H](OC(=O)N2CCC(n3c(=O)[nH]c4ncccc43)CC2)CC[C@H]1c1cccc(F)c1F", "note": "[BMS-927711]", "values": [{"measurement": "efficacy of the highest tested dose", "setting": "[1]; 600 mg", "result": "no additional benefit over the doses of 75 mg and 150 mg"}, {"measurement": "secondary endpoints versus placebo", "setting": "[1]; Phase 2b, acute migraine", "result": "most (and sometimes all) doses were superior to placebo"}, {"measurement": "tolerability", "setting": "[1]; acute dosing", "result": "placebo-like"}, {"measurement": "primary efficacy endpoint: proportion of pain-free subjects at 2 hours post dose", "setting": "[1]; all doses, compared with sumatriptan, study not powered for direct comparisons", "result": "numerically inferior to sumatriptan"}, {"measurement": "efficacy as a function of dose", "setting": "[1]; doses up to 300 mg", "result": "increased up to the dose of 75 mg when a plateau effect seemed to have been reached for doses between 75 mg and 300 mg"}, {"measurement": "serious adverse events", "setting": "[1]; in the trial", "result": "No serious adverse event was reported"}, {"measurement": "photophobia and phonophobia", "setting": "[1]; most effective doses", "result": "significantly improved"}, {"measurement": "secondary endpoints versus sumatriptan", "setting": "[1]; most effective doses", "result": "numerically superior to sumatriptan"}, {"measurement": "efficacy of a single dose", "setting": "[1]; single dose", "result": "has been demonstrated"}]}
{"smiles": "O=C(CN1C(=O)C2(CCCC2)NC[C@H]1c1cc(F)cc(F)c1)Nc1ccc2c(c1)C[C@@]1(C2)C(=O)Nc2ncccc21", "note": "[MK-3207]", "values": [{"measurement": "liver toxicity", "setting": "[2]", "result": "concerns of liver toxicity"}, {"measurement": "potency relative to telcagepant", "setting": "[3]", "result": "significantly more potent than telcagepant"}]}
{"smiles": "O=C(N[C@@H]1CC[C@@H](c2cccc(F)c2F)CN(CC(F)(F)F)C1=O)N1CCC(n2c(=O)[nH]c3ncccc32)CC1", "note": "[Telcagepant]", "values": [{"measurement": "liver toxicity", "setting": "[2]", "result": "concerns of liver toxicity after frequent use"}]}
